Data taken from patent US8383094B2, “Hepatitis C virus inhibitors” (Bristol-Myers Squibb Company, priority 2008, dated 2013).
Read-outs that look alike come from different tables or passages of the source.

Test system: HCV 1b genotype
Experiment: HCV Replicon assay (HCV-neo replicon cells, wild-type)
Assay type: cell-based
Conditions: Hepatitis C virus
Protocol: An HCV Replicon assay was utilized in the present disclosure, and was prepared, conducted and validated as described in commonly owned PCT/US2006/022197 and in O′Boyle et. al. Antimicrob Agents Chemother, 2005 April; 49(4):1346-53. Assay methods incorporating luciferase reporters have also been used as described (Apath.com).
HCV-neo replicon cells and replicon cells containing mutations in the NS5A region were used to test the currently described family of compounds. The compounds were determined to have more than 10-fold less inhibitory activity on cells containing mutations than wild-type cells. Thus, the compounds of the present disclosure can be effective in inhibiting the function of the HCV NS5A protein and are understood to be as effective in combinations as previously described in application PCT/US2006/022197 and commonly owned WO/04014852. Further, the compounds of the present disclosure can be effective against the HCV 1b genotype. It should also be understood that the compounds of the present disclosure can inhibit multiple genotypes of HCV. […] In one embodiment, compounds of the present disclosure are inhibitory versus 1a, 1b, 2a, 2b, 3a, 4a, and 5a genotypes.

[1] = HCV 1b genotype replicon, range class A-D, read-out: 1b EC50 (in μM or range)
[2] = HCV 1b genotype replicon, read-out: 1b EC50 (in μM or range)

Compound	EC50 [1]	further results
O=C(Nc1ccc(C#Cc2ccc(NC(=O)[C@@H]3CCCN3C(=O)[C@@H](O)c3ccccc3)cc2)cc1)[C@@H]1CCCN1C(=O)[C@@H](O)c1ccccc1 [Example D41, (2S,2′S)-N,N′-(1,2-ethynediyldi-4,1-phenylene)bis(1-((2S)-2-hydroxy-2-phenylacetyl)-2-pyrrolidinecarboxamide)]	< 0.00457 µM	
O=C(Nc1ccc(C#Cc2ccc(NC(=O)[C@@H]3CCCN3C(=O)[C@@H](O)c3ccccc3)cc2)cc1)[C@@H]1CCCN1C(=O)c1nc(Cl)cc2ccccc12 [Example D42, (2S)-1-((3-Chloro-1-isoquinolinyl)carbonyl)-N-(4-((4-((((2S)-1-((2S)-2-hydroxy-2-phenylacetyl)-2-pyrrolidinyl)carbonyl)amino)phenyl)ethynyl)phenyl)-2-pyrrolidinecarboxamide]		EC50 [2]: 0.017 µM
O=C(Nc1ccc(C#Cc2ccc(NC(=O)[C@@H]3CCCN3C(=O)[C@H](O)c3ccccc3)cc2)cc1)[C@@H]1CCCN1C(=O)[C@H](O)c1ccccc1 [Example D43, (2S,2′S)-N,N′-(1,2-ethynediyldi-4,1-phenylene)bis(1-((2R)-2-hydroxy-2-phenylacetyl)-2-pyrrolidinecarboxamide)]	< 0.00457 µM	
O=C(Nc1ccc(C#Cc2ccc(NC(=O)[C@@H]3CCCN3C(=O)[C@H](O)c3ccccc3)cc2)cc1)[C@@H]1CCCN1C(=O)c1nc(Cl)cc2ccccc12 [Example D44, (2S)-1-((3-Chloro-1-isoquinolinyl)carbonyl)-N-(4-((4-((((2S)-1-((2R)-2-hydroxy-2-phenylacetyl)-2-pyrrolidinyl)carbonyl)amino)phenyl)ethynyl)phenyl)-2-pyrrolidinecarboxamide]	< 0.00457 µM	
COc1cccc2c(C(=O)N3CCC[C@H]3C(=O)Nc3ccc(C#Cc4ccc(NC(=O)[C@@H]5CCCN5C(=O)Cc5cccnc5)cc4)cc3)nc(Cl)cc12 [Example D45, (2S)-1-((3-Chloro-5-methoxy-1-isoquinolinyl)carbonyl)-N-(4-((4-((((2S)-1-(3-pyridinylacetyl)-2-pyrrolidinyl)carbonyl)amino)phenyl)ethynyl)phenyl)-2-pyrrolidinecarboxamide]	0.1 to 0.999 µM	
COc1cccc2c(C(=O)N3CCC[C@H]3C(=O)Nc3ccc(C#Cc4ccc(NC(=O)[C@@H]5CCCN5C(C)=O)cc4)cc3)nc(Cl)cc12 [Example D46, (2S)-1-Acetyl-N-(4-((4-((((2S)-1-((3-chloro-5-methoxy-1-isoquinolinyl)carbonyl)-2-pyrrolidinyl)carbonyl)amino)phenyl)ethynyl)phenyl)-2-pyrrolidinecarboxamide]	0.1 to 0.999 µM	
COc1cccc2c(C(=O)N3CCC[C@H]3C(=O)Nc3ccc(C#Cc4ccc(NC(=O)[C@@H]5CCCN5C(=O)CC5CC5)cc4)cc3)nc(Cl)cc12 [Example D47, (2S)-1-((3-Chloro-5-methoxy-1-isoquinolinyl)carbonyl)-N-(4-((4-((((2S)-1-(cyclopropylacetyl)-2-pyrrolidinyl)carbonyl)amino)phenyl)ethynyl)phenyl)-2-pyrrolidinecarboxamide]	0.00457 to 0.099 µM	
O=C(Nc1ccc(C#Cc2ccc(NC(=O)[C@@H]3CCCN3C(=O)Cc3ccccc3)nc2)cn1)[C@@H]1CCCN1C(=O)Cc1ccccc1 [Example D48, (2S,2′S)-N,N′-(1,2-ethynediyldi-5,2-pyridinediyl)bis(1-(phenylacetyl)-2-pyrrolidinecarboxamide)]	< 0.00457 µM	
O=C(Nc1ccc(C#Cc2ccc(NC(=O)[C@@H]3CCCN3C(=O)/C=C/c3ccccc3)nc2)cn1)[C@@H]1CCCN1C(=O)/C=C/c1ccccc1 [Example D49, (2S,2′S)-N,N′-(1,2-ethynediyldi-5,2-pyridinediyl)bis(1-((2E)-3-phenyl-2-propenoyl)-2-pyrrolidinecarboxamide)]	0.1 to 0.999 µM	
C[C@@H](C(=O)N1CCC[C@H]1C(=O)Nc1ccc(C#Cc2ccc(NC(=O)[C@@H]3CCCN3C(=O)[C@H](C)c3ccccc3)nc2)cn1)c1ccccc1 [Example D50, (2S,2′S)-N,N′-(1,2-ethynediyldi-5,2-pyridinediyl)bis(1-((2R)-2-phenylpropanoyl)-2-pyrrolidinecarboxamide)]	< 0.00457 µM	
C[C@@](O)(C(=O)N1CCC[C@H]1C(=O)Nc1ccc(C#Cc2ccc(NC(=O)[C@@H]3CCCN3C(=O)[C@@](C)(O)c3ccccc3)nc2)cn1)c1ccccc1 [Example D51, (2S,2′S)-N,N′-(1,2-ethynediyldi-5,2-pyridinediyl)bis(1-((2S)-2-hydroxy-2-phenylpropanoyl)-2-pyrrolidinecarboxamide)]	< 0.00457 µM	
O=C(Nc1ccc(C#Cc2ccc(NC(=O)[C@@H]3CCCN3C(=O)Cc3ccccc3)cn2)nc1)[C@@H]1CCCN1C(=O)Cc1ccccc1 [Example D52, (2S,2′S)-N,N′-(6,6′-(ethyne-1,2-diyl)bis(pyridine-6,3-diyl))bis(1-(2-phenylacetyl)pyrrolidine-2-carboxamide)]	0.00457 to 0.099 µM	
O=C(Nc1ccc(C#Cc2ccc(NC(=O)[C@@H]3CCCN3C(=O)/C=C/c3ccccc3)cn2)nc1)[C@@H]1CCCN1C(=O)/C=C/c1ccccc1 [Example D53, (2S,2′S)-N,N′-(1,2-ethynediyldi-2,5-pyridinediyl)bis(1-((2E)-3-phenyl-2-propenoyl)-2-pyrrolidinecarboxamide)]		EC50 [2]: 2.73 µM
C[C@@H](C(=O)N1CCC[C@H]1C(=O)Nc1ccc(C#Cc2ccc(NC(=O)[C@@H]3CCCN3C(=O)[C@H](C)c3ccccc3)cn2)nc1)c1ccccc1 [Example D54, (2S,2′S)-N,N′-(1,2-ethynediyldi-2,5-pyridinediyl)bis(1-((2R)-2-phenylpropanoyl)-2-pyrrolidinecarboxamide)]	< 0.00457 µM	
CC(=O)N1CCC[C@H]1C(=O)Nc1ccc(C#Cc2ccc(NC(=O)[C@@H]3CCCN3C(=O)Cc3ccccc3)nc2)cc1 [Example D55, (2S)-1-Acetyl-N-(4-((6-((((2S)-1-(phenylacetyl)-2-pyrrolidinyl)carbonyl)amino)-3-pyridinyl)ethynyl)phenyl)-2-pyrrolidinecarboxamide]	0.1 to 0.999 µM	
CC(=O)N1CCC[C@H]1C(=O)Nc1ccc(C#Cc2ccc(NC(=O)[C@@H]3CCCN3C(=O)c3nccc4ccccc34)nc2)cc1 [Example D56, (2S)-1-Acetyl-N-(4-((6-((((2S)-1-(1-isoquinolinylcarbonyl)-2-pyrrolidinyl)carbonyl)amino)-3-pyridinyl)ethynyl)phenyl)-2-pyrrolidinecarboxamide]		EC50 [2]: 2.09 µM
CC(=O)N1CCC[C@H]1C(=O)Nc1ccc(C#Cc2ccc(NC(=O)[C@@H]3CCCN3C(=O)Cc3cccnc3)nc2)cc1 [Example D57, (2S)-1-Acetyl-N-(4-((6-((((2S)-1-(3-pyridinylacetyl)-2-pyrrolidinyl)carbonyl)amino)-3-pyridinyl)ethynyl)phenyl)-2-pyrrolidinecarboxamide]	1 to 10 µM	
CC(=O)N1CCC[C@H]1C(=O)Nc1ccc(C#Cc2ccc(NC(=O)[C@@H]3CCCN3C(=O)c3cccc4cccnc34)nc2)cc1 [Example D58, (2S)-1-Acetyl-N-(4-((6-((((2S)-1-(8-quinolinylcarbonyl)-2-pyrrolidinyl)carbonyl)amino)-3-pyridinyl)ethynyl)phenyl)-2-pyrrolidinecarboxamide]		EC50 [2]: > 10 µM
CC(=O)N1CCC[C@H]1C(=O)Nc1ccc(C#Cc2ccc(NC(=O)[C@@H]3CCCN3C(=O)c3cccc4ccccc34)nc2)cc1 [Example D59, (2S)-1-Acetyl-N-(4-((6-((((2S)-1-(1-naphthoyl)-2-pyrrolidinyl)carbonyl)amino)-3-pyridinyl)ethynyl)phenyl)-2-pyrrolidinecarboxamide]		EC50 [2]: 1.48 µM
CN(C)c1ccc(C#Cc2ccc(NC(=O)[C@@H]3CCCN3C(=O)[C@@H](c3ccccc3)N(C)C)cc2)cc1 [Example D60, (S)-1-((R)-2-(dimethylamino)-2-phenylacetyl)-N-(4-((4-(dimethylamino)phenyl)ethynyl)phenyl)pyrrolidine-2-carboxamide]	0.1 to 0.999 µM	
CC(C)(C)OC(=O)Nc1ccc(C#Cc2ccc(NC(=O)[C@@H]3CCCN3C(=O)[C@H](O)c3ccccc3)cc2)cc1 [Example D60.1, tert-Butyl 4-((4-((S)-1-((R)-2-hydroxy-2-phenylacetyl)pyrrolidine-2-carboxamido)phenyl)ethynyl)phenylcarbamate]	0.1 to 0.999 µM	
CN1CCN(C(C(=O)N2CCC[C@H]2C(=O)Nc2ccc(C#Cc3ccc(NC(=O)[C@@H]4CCCN4C(=O)C(c4ccccc4)N4CCN(C)CC4)cc3)cc2)c2ccccc2)CC1 (stereo partly drawn) [VA44, (2S,2′S)-N,N′-(1,2-ethynediyldi-4,1-phenylene)bis(1-((4-methyl-1-piperazinyl)(phenyl)acetyl)-2-pyrrolidinecarboxamide)]		EC50 (read-out: 1b EC50 (in μM or range), HCV 1b genotype replicon, range class A-D): < 0.00457 µM
C[C@@](O)(C(=O)N1CCC[C@H]1C(=O)Nc1ccc(C#Cc2ccc(NC(=O)[C@@H]3CCCN3C(=O)[C@@](C)(O)c3ccccc3)cc2)cc1)c1ccccc1 [VN1, (2S,2′S)-N,N′-(1,2-ethynediyldi-4,1-phenylene)bis(1-((2S)-2-hydroxy-2-phenylpropanoyl)-2-pyrrolidinecarboxamide)]	< 0.00457 µM	
C[C@](O)(C(=O)N1CCC[C@H]1C(=O)Nc1ccc(C#Cc2ccc(NC(=O)[C@@H]3CCCN3C(=O)[C@](C)(O)c3ccccc3)cc2)cc1)c1ccccc1 [VN2, (2S,2′S)-N,N′-(1,2-ethynediyldi-4,1-phenylene)bis(1-((2R)-2-hydroxy-2-phenylpropanoyl)-2-pyrrolidinecarboxamide)]	< 0.00457 µM	
